Results on one molecule are retold here after US9365550B2, “Benzimidazoles as CNS active agents” (Hoffmann-La Roche Inc., priority 2012, dated 2016).

Data set [1] relates to human embryonic stem cell derived neural stem cells (NSCs). The experiment in a line: Neural stem cell proliferation assay (neurogenesis assay, ATP/CellTiterGlo). Format: cell-based. Particulars: 96 h, compound concentration at which 150% activity of control (100%) is reached, NSC proliferation by ATP level after 4 days incubation, dose response 8 μM to 8 nM. The procedure:
Neural Stem Cell Proliferation Assay
Neurogenic properties of small molecules are determined based on the proliferation of human embryonic stem cell derived neural stem cells (NSCs) which were derived via a dual smad inhibition as previously described (Chambers, S. M., et al., Highly efficient neural conversion of human ES and iPS cells by dual inhibition of SMAD signaling, Nature biotechnology, 2009. 27(3): p. 275-80.)
Compounds respond is measured by the increase in cells based on ATP levels (Promega:CellTiterGlo®) after an incubation period of 4 days.
NSCs are thawed and expanded over 3 passages. On the 14th day, NSCs are seeded in Polyornithin/Laminin coated 384 well plates at a cell density of 21,000 cells/cm^2 in a media volume of 38 μL.
4 hours after cell seeding, compound solutions are added at a volume of 2 μl. Stock solutions of the compounds (water, 5% DMSO) are diluted to obtain a dose response (11 points, dilution factor is 2), ranging from 8 μM to 8 nM. Controls are run to consistently determine the neurogenic properties of the cells:
Negative (neutral) control is cell culture Media (final DMSO concentration: 0.25%).
Positive controls are: • 1. cell culture Media+100 ng/ml FGF2 (final DMSO concentration: 0.1%) • 2. cell culture Media+20 ng/ml EGF (final DMSO concentration: 0.1%) • 3. cell culture Media+100 ng/ml Wnt3a (final DMSO concentration: 0.1%)
After 4 days incubation at 37° C., 5% CO2, the amount of ATP per well is quantified. The ATP concentration is proportional to the cell number. ATP is quantified by using the Promega CellTiterGlo® kit. The CellTiterGlo® reagents contain a cell lysis buffer, a thermo stable luciferase (UltraGlo™ recombinant luciferase), magnesium and luciferin. Luciferin reacts with ATP producing oxyluciferin, AMP and light. The luminescence signal is proportional to the ATP content.
The value of negative (neutral) control is determined for each assay plate by taking the average of 16 negative control wells. The neurogenic compound response is calculated for each compound as (compound/Negative Control)*100.
The values of EC150 from the dose response curve are determined for each test compound. The EC150 is the compound concentration at which 150% activity of control (100%) is reached.
In general terms: In ATP-based viability assays light output follows the ATP content of the culture.

On to `Fc1ccc(-n2cncc2-c2ccc3ncn(-c4ccc(F)cc4)c3c2)cc1` [Example 30, 1-(4-Fluoro-phenyl)-6-[3-(4-fluoro-phenyl)-3H-imidazol-4-yl]-1H-benzoimidazole], for which the melting point – broadly, the temperature, or range, at which the solid turns liquid – amounted to 247 °C. This molecule also registered an EC150 in data set [1] of 0.11 µM.
